Source: article PMC6752957, “Beta-defensins and analogs in Helicobacter pylori infections: mRNA expression levels, DNA methylation, and antibacterial activity” (PLoS ONE, 2019)
No end group written: not given here.

Experiments:
[1] = cited from earlier work; for antimicrobial activity at high NaCl concentrations: background statement of the introduction
Source text: Defensins exert their killing activity against bacteria, yeasts, fungi, and viruses. The activity of antimicrobial peptides involves the initial electrostatic binding to the cell membrane of microorganisms and subsequent incorporation into the membrane. This antimicrobial action induces damage or even destruction of the microbial cell membrane via pore formation. […] We previously reported the killing activity of β-defensin ...

[2] = system: H. pylori (ATCC49503 (tox+ strain 60190)); assay: CFU assay of antimicrobial activity against H. pylori, with salt dependence; type: cell-based, Helicobacter pylori
Protocol: CFU assays of the antimicrobial activities of HBDs against H. pylori (ATCC49503 (tox+ strain 60190); American Type Culture Collection, ATCC) were performed. The toxin-producing H. pylori strain was revived from frozen stocks by seeding on a blood agar plate (7% horse blood) at 37°C for 3 days in microaerophilic conditions (O2:10% and […]) generated with Anaeropack Campylo (Mitsubishi Gas Chemicals Corp.). Bacteria harvested from the plates were suspended in 200 ml of brain heart infusion broth (10% fetal calf serum) and grown in liquid culture at 37°C for three days while shaking in a monitored microaerophilic atmosphere.
H. pylori was incubated with HBDs for two hours at 37°C. Two concentrations of peptides (2.5 μM and 12.5 μM) were used. For the salt dependence assay, 0, 50, 100, and 200 mM concentrations of NaCl were added in the incubation buffer as previously described. Each assay was done in triplicate.
Antimicrobial activity of HBD2-4 and the analogs 3N and 3NI was evaluated on H. pylori, cultured on HP agar for 4 d after a […] pre-incubation with or without chemically synthesized HBD-2-4 and 3N and 3NI analogs. The two peptide sequences are derived from HBD1 and HBD3. 3N analog is the HBD3 sequence without the N-terminal domain that HBD1 lacks.
We evaluated two concentrations of every peptide (2.5 and 12.5 μM) and 4 NaCl concentrations (0, 50, 100, and 200 mM). Antibacterial activity of 3NI against H. pylori started at concentrations as low as 2.5 μM in the presence of at least 200 mM NaCl.

Q: Which “antimicrobial activity at high NaCl concentrations” value (“antimicrobial activity” for short) [1] does the source give for “ELDRIC^1GYGTARC^2RKK-C^3RSQEYRIGRC^4PNTYAC^5C^6LRK (bicyclic or more) [HBD4, human beta-defensin 4, purchased from Peptides International]” here?
A: reduced by high NaCl concentrations

Q: With “GIGDPVTC^1LKSGAIC^2HPVFC^3PRRYKQIGTC^4GLPGTKC^5C^6KKP (bicyclic or more) [HBD2, human beta-defensin 2, purchased from Peptides International]” as the substance, how does the “antimicrobial activity” value [1] read?
A: reduced by high NaCl concentrations

Q: Which “antimicrobial activity” value [1] does the source give for “GIINTLQKYYC^1RVRGGRC^2AVLSC^3LPKEEQIGKC^4STRGRKC^5C^6RRKK (bicyclic or more) [HBD3, human beta-defensin 3, purchased from Peptides International]” here?
A: still active up to 150 mM NaCl concentrations

Q: Which “antimicrobial activity” value [1] does the source give for “HBD1: human beta-defensin 1, constitutively synthesized; only mentioned in background, not tested here (DHYNCVSSGGQCLYSACPIFTKIQGTCYRGKAKCCK; not fully specified; ends and bridges not checked; UniProt P60022 33-68, looked up)” here?
A: reduced by high NaCl concentrations

Q: Which “antibacterial activity against H. pylori in contrast to wild-type peptides” value ([2]; 2.5 and 12.5 μM, 0, 50, 100 and 200 mM NaCl (Fig 4 title)) does the source give for “KYYC^1RVRGGRC^2AVLSC^3PIFTKIQGTC^4STRGRKC^5C^6RRKK (bicyclic or more) [3NI]” here?
A: increased antibacterial activity

Q: And the “concentration at which antibacterial activity against H. pylori started” value ([2]; in the presence of at least 200 mM NaCl, CFU assay, peptides tested at 2.5 and 12.5 μM, triplicate)?
A: 2.5 µM

Q: What about the “resistance of killing activity to high NaCl concentrations” value ([1]; earlier work of the authors) of the same substance?
A: resistant to high NaCl concentrations

Q: For “QKYYC^1RVRGGRC^2AVLSC^3LPKEEQIGKC^4STRGRKC^5C^6RRKK (bicyclic or more) [3N]”, which “antibacterial activity against H. pylori at 12.5 μM” value ([2]; 12.5 μM peptide, 0, 50, 100 and 200 mM NaCl, 3 independent experiments (Fig 4)) is on record?
A: little antibacterial effect
